Results: patent US20220135538A1, “P300/CBP HAT INHIBITORS AND METHODS FOR THEIR USE” (Constellation Pharmaceuticals, Inc., priority 2019, published 2022)

Assays:
full length p300 = target: T1, full length p300 (Homo sapiens, UniProt Q09472); assay: Full length p300 SPA assay; assay type: biochemical; conditions: 6 nM purified full length p300; read-out: FL P300 IC50
T1 construct: used 6 nM purified full length p300 (purchased from Active Motif); purchased Active Motif
Experimental: (§1) Compounds of interest solubilized in DMSO were stamped in a Greiner black 384-well plate in a 10-point duplicate dose response using an Echo 550 (Labcyte). p300-HAT domain purified in-house (aa 1287-1666) was diluted to 6 nM in reaction buffer (50 mM Tris pH 8.0, 100 mM NaCl, 1 mM DTT, 0.069 mM Brij-35, 0.1 mM EDTA, 0.1 mg/mL BSA), combined with 4.14 μM AcCoA (Sigma-Aldrich) and 0.46 μM ^3H-AcCoA (PerkinElmer), and 12.5 μL added to each well and incubated for 30 min at RT. Reactions were initiated with 12.5 μL 2 μM biotinylated H3(1-21) peptide (New England Peptide) and run for 1 hr at RT, then quenched with 20 μL stop solution (200 mM Tris pH 8.0, 200 mM EDTA, 2M NaCl, 160 μM anacardic acid). 35 μL of the reaction volume was transferred to a 384-well streptavidin FlashPlate (PerkinElmer) using a Bravo liquid handler (Velocity 11) and incubated for 1.5 hr at RT. Plates were aspirated, washed with 95 μL wash buffer (15 mM Tris pH 8.5, 0.069 μM Brij-35), aspirated, sealed, and scintillation counts read on a Topcount (PerkinElmer). Data were analyzed in Genedata to determine inhibitor IC50 values.
The full length p300 SPA assay was run following the same protocol as p300 HAT SPA assay, but used 6 nM purified full length p300 (purchased from Active Motif) in place of the purified p300-HAT domain.

[1] = system: acetylation of chromatin at H3K18 in HCT-116 cells; assay: H3K18Ac MSD cellular assay; assay type: cell-based; conditions: Homo sapiens, 2 hr treatment
Experimental: Select compounds were also evaluated in a H3K18Ac MSD cellular assay that measures the ability of compounds to inhibit the acetylation of chromatin at H3K18, a process catalyzed by p300 and CBP. In a typical experiment the p300 HAT inhibitory activity inside cells of the compounds described herein was determined in accordance with the following experimental method. 20 k HCT-116 cells per well are plated in 75 μL RPMI+10% FBS media the night before treatment. Compounds plated in DMSO at 4× final concentration are resuspended in 30 μL RPMI+10% FBS, then 25 μL is combined with corresponding wells containing cells. Treated cells are incubated for 2 hr at 37° C., then lysed in 500 μL final volume and frozen at −80° C. MSD plates (Meso Scale Discovery) are coated overnight at 4° C. with 60 μL 1:500 α-total histone antibody (Millipore MAB3422) in PBS. Plates are then blocked with 5% BSA in TBST shaking at RT for 1 hr, washed, and 30 μL lysate added to each well for 2 hr shaking at RT. Plates are washed and 25 μL 1:216 α-H3K18ac antibody (CST 9675) in PBS added, then incubated for 1 hr shaking at RT. Plates are washed again, then 25 μL 1:1000 Sulfo-Tag goat α-rabbit antibody (Meso Scale Discovery R32Ab-1) in PBS is added for 1 hr shaking at RT. Plates are washed once more, then 150 μL 1× Read Buffer (MSD #R92TD-3) is added to all wells and read on MSD SECTOR Imager 2400 using the conventional read setup.

[2] = target: T2, p300 HAT domain (residues 1287-1666) (Homo sapiens, UniProt Q09472); assay: P300 HAT SPA assay (scintillation proximity, acetylation of biotinylated H3(1-21) peptide); assay type: biochemical; conditions: 6 nM p300-HAT domain; average of at least 2 replicate titrations
T2 construct: The p300 HAT domain (residues 1287-1666) was expressed; His tag (N); made in house; host or cells: Escherichia coli
T2 sequence (Q09472 1287-1666): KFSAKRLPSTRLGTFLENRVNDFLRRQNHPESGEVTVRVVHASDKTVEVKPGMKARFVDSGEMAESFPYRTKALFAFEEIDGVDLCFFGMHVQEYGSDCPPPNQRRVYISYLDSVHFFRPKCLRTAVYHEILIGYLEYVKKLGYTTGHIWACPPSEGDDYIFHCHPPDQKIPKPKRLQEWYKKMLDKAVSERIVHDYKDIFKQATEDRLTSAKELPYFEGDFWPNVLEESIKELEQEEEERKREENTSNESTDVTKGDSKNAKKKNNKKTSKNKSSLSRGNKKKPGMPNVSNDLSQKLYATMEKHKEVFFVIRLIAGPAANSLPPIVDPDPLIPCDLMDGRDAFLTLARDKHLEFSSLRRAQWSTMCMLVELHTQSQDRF
Experimental: The activity of the compounds described herein as p300/CBP HAT inhibitors may be readily determined using a scintillation proximity assay (SPA) methodology (Udenfriend, S.; Gerber, L.; Nelson, N. Scintillation Proximity Assay: A Sensitive and Continuous Isotopic Method for Monitoring Ligand/Receptor and Antigen/Antibody Interactions. Anal. Biochem. 1987, 161, 494-500).
In a typical experiment the p300 HAT inhibitory activity of the compounds described herein was determined in accordance with the following experimental method.
The p300 HAT domain (residues 1287-1666) was expressed and purified with an N-terminal His tag from Escherichia coli cells. The expressed protein was purified by Ni2+affinity, followed by anion exchange chromatography. Appropriate fractions were pooled and buffer exchanged into 20 mM Hepes pH 7.5, 150 mM NaCl, and 1 mM TCEP.
as §1

T1 sequence (Q09472 whole entry): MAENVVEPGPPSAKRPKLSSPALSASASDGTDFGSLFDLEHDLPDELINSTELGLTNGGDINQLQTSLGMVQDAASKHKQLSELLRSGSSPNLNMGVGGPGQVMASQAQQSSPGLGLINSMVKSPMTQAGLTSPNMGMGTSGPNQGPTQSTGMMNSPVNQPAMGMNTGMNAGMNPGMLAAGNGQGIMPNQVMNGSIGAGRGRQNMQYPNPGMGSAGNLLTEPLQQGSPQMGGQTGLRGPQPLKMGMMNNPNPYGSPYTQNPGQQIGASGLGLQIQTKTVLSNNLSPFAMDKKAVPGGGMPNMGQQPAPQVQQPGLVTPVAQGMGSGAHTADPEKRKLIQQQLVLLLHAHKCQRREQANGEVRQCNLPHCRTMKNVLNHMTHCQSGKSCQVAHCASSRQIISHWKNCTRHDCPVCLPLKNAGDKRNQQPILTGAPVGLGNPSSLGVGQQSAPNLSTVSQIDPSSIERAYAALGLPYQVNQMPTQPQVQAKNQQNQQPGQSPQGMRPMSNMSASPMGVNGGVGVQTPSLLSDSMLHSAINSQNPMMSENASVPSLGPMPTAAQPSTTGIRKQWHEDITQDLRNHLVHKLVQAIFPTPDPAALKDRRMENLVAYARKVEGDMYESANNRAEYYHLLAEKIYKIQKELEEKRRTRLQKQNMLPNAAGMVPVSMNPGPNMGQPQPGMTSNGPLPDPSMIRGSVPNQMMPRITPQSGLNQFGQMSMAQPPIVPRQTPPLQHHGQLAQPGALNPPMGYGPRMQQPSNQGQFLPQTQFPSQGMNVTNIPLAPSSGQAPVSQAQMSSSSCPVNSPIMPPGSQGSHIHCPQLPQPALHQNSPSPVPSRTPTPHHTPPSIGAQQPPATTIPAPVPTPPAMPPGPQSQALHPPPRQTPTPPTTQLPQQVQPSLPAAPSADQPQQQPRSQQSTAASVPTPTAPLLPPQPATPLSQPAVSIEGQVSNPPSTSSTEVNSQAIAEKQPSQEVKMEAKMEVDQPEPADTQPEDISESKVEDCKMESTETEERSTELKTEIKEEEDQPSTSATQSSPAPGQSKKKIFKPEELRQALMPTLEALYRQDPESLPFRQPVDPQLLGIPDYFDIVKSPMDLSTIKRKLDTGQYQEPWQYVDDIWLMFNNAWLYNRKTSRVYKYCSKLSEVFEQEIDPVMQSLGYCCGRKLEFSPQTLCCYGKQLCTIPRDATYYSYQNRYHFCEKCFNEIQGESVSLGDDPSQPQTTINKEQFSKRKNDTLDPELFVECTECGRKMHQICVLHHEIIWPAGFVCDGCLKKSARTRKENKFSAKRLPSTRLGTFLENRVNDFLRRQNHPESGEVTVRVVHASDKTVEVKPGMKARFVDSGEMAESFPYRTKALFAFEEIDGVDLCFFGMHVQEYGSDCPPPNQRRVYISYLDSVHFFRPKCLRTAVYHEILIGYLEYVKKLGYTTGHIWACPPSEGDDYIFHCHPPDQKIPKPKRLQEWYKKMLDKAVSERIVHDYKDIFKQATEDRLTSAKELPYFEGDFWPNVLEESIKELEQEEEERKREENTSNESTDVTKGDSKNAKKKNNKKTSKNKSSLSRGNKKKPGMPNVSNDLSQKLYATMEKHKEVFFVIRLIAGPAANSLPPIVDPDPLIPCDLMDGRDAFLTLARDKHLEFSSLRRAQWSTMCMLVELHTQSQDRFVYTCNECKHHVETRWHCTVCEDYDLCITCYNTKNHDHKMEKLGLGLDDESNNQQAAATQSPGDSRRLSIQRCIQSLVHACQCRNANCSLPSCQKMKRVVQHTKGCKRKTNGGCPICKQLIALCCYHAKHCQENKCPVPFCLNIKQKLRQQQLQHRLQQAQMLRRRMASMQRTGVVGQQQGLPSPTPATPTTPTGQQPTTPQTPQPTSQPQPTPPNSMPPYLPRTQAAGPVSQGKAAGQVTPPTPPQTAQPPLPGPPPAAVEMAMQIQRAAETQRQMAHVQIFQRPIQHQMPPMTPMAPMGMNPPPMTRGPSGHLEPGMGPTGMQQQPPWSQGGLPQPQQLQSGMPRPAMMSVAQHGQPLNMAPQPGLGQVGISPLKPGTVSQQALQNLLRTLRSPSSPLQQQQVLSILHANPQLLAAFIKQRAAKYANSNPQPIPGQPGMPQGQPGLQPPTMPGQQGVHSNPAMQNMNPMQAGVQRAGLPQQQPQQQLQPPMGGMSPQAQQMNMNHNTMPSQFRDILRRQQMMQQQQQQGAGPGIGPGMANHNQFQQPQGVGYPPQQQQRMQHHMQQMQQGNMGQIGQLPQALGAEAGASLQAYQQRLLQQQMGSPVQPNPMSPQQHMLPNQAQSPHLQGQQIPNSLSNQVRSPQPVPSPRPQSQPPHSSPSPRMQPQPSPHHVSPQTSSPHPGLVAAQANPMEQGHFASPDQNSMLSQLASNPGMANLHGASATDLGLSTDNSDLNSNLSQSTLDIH

Compound: CN1CCC(Oc2ccc(NC(=O)C(NCCc3ccc(C#N)cc3)c3ccccc3)nc2)CC1 (single isomer, unassigned) [1 Isomer 1]
- IC50 (full length p300): < 0.002 µM
- EC50 [1]: 0.035 µM
- IC50 [2]: 0.0277 µM

Compound: CN1CCC(Oc2ccc(NC(=O)C(NCCc3ccc(C#N)cc3)c3ccccc3)nc2)CC1 (single isomer, unassigned) [1 Isomer 2]
- IC50 (full length p300): 0.24 µM
- IC50 [2]: > 5 µM

Compound: CC(=O)N1CC(Oc2ccc(NC(=O)C(NC[C@@H](C)c3ccc(C#N)cc3)c3ccccc3)nc2)C1 (single isomer, unassigned) [2 Isomer 1]
- IC50 (full length p300): < 0.002 µM
- EC50 [1]: 0.02 µM
- IC50 [2]: 0.0212 µM

Compound: N#Cc1ccc(CCNC(C(=O)Nc2ccc(OC3CCOCC3)cn2)c2ccccc2)cc1 (single isomer, unassigned) [5 Isomer 1]
- IC50 (full length p300): 0.00369 µM
- IC50 [2]: 0.0976 µM

Compound: N#Cc1ccc(CCNC(C(=O)Nc2ccc(OC3CCOCC3)cn2)c2ccccc2)cc1 (single isomer, unassigned) [5 Isomer 2]
- IC50 (full length p300): 0.137 µM
- IC50 [2]: > 2 µM

Compound: Cn1cc(COc2ccc(NC(=O)C(NCCc3ccc(Cl)cc3)c3ccccc3)nc2)cn1 (single isomer, unassigned) [8 Isomer 2]
- EC50 [1]: 0.069 µM
- IC50 [2]: 0.0168 µM

Compound: CC(=O)N1CCC(Oc2ccc(NC(=O)C(NCCc3ccc(C#N)cc3)c3ccccc3)nc2)CC1 (single isomer, unassigned) [9 Isomer 1]
- IC50 (full length p300): 0.00421 µM
- IC50 [2]: 0.0564 µM

Compound: CC(=O)N1CCC(Oc2ccc(NC(=O)C(NCCc3ccc(C#N)cc3)c3ccccc3)nc2)CC1 (single isomer, unassigned) [9 Isomer 2]
- IC50 (full length p300): 0.102 µM
- IC50 [2]: > 2 µM

Compound: CC(CNC(C(=O)Nc1ccc(OC2CN(C(=O)C3CC3)C2)cn1)c1ccccc1)c1ccc(C#N)cc1 (single isomer, unassigned) [21 Isomer 1]
- IC50 (full length p300): < 0.002 µM
- IC50 [2]: 0.0274 µM

Compound: CC(=O)N1CC(Oc2ccc(NC(=O)C(NCC(C)c3ccc(C#N)cc3)c3cccc(F)c3)nc2)C1 (single isomer, unassigned) [23 Isomer 1]
- IC50 (full length p300): < 0.003 µM
- EC50 [1]: 0.0319 µM
- IC50 [2]: 0.0233 µM

Compound: CC(=O)N1CC(Oc2ccc(NC(=O)C(NCC(C)c3ccc(C#N)cc3)c3cnn(C)c3)nc2)C1 (single isomer, unassigned) [24 Isomer 1]
- IC50 (full length p300): < 0.003 µM
- EC50 [1]: 0.057 µM
- IC50 [2]: 0.038 µM

Compound: CC(=O)N1CC(Oc2ccc(NC(=O)C(NCC(C)c3ccc(C#N)cc3)c3cnn(C)c3)nc2)C1 (single isomer, unassigned) [24 Isomer 4]
- IC50 [2]: > 2 µM

Compound: CC(CNC(C(=O)Nc1ccc(OC2CN(C(=O)OC(C)(C)C)C2)cn1)c1ccccc1)c1ccc(C#N)cc1 (single isomer, unassigned) [25 Isomer 1]
- IC50 [2]: > 1 µM

Compound: CC(CNC(C(=O)Nc1ccc(OC2CN(C(=O)OC(C)(C)C)C2)cn1)c1ccccc1)c1ccc(C#N)cc1 (single isomer, unassigned) [25 Isomer 2]
- IC50 [2]: 0.115 µM
